Measurements from US20110212978A1 (AstraZeneca AB, priority 2005, published 2011).

What was measured:
[1] = tested on: MX-1 tumour xenografts; assay: MX-1 human tumour xenograft growth in female athymic mice; assay type: in vivo; conditions: female nude mice; for Day 14 Median tumour volume / Day 14 geometric mean tumour volume: Day 14 after implantation (randomisation, start of treatment), ZD6474 25 mg/kg/day p.o., pemetrexed 75 mg/kg i.p.; for Day 28 Median tumour volume / Day 28 geometric mean tumour volume: ZD6474 25 mg/kg/day p.o. once daily, pemetrexed 75 mg/kg i.p. once daily days 14-18 and 21-25
Procedure: Tumour implantation procedures were performed on mice of at least 5 weeks of age. Human tumour xenografts were grown in female athymic (nu/nu genotype, Swiss) mice. MX-1 tumour fragments were implanted into athymic mice and allowed to grow to 0.7-1 cm^3 to provide donor tumour tissue. The donor tumours were surgically excised and smaller tumour fragments (20-30 mg) were implanted subcutaneously (s.c.) in the right flanks of the experimental athymic mice. When the mean tumour volume reached 0.1-0.3 cm^3, randomisation was carried out. […] An additional group of animals received a combination of pemetrexed and ZD6474, using the same doses and schedules as used for single agent treatment.
Tumour volumes were assessed at least twice weekly by bilateral Vernier caliper measurement. Growth inhibition from the start of treatment was assessed by comparison of the differences in tumour volume between control and treated groups.
Experiments were conducted on female athymic mice (Swiss nu/nu genotype, >6 weeks of age). MX-1 human tumour xenografts were established in mice from tumour cell implants. The donor tumours were surgically excised when they reached a volume of 0.7-1 cm^3, divided into fragments and frozen until further use. At the start of the experiment, fragments (approximately 30 mg) were thawed and implanted (subcutaneously in the dorsal flank) in the experimental animals. Tumour volumes were assessed at least twice weekly by bilateral Vernier calliper measurements. Mice were randomised into treatment groups when the tumour volume reached 0.1-0.2 cm^3. […] An additional group of animals received a combination of ZD6474 and pemetrexed, using the same doses and schedules as used for single agent treatment.
Tumour growth inhibition (TGI) from the start of treatment was assessed by comparison of the differences in tumour volume between control and treated groups.

[2] = tested on: VEGF RTK; conditions: cited from earlier work
[3] = tested on: tumour growth; conditions: range of models, once-daily oral administration; cited from earlier work

| Compound | Day 14 Median tumour volume [1] | Day 14 geometric mean tumour volume [1] | Day 28 Median tumour volume [1] | Day 28 geometric mean tumour volume [1] | Inhibition of VEGF RTK [2] | Anti-tumour activity [3] |
| --- | --- | --- | --- | --- | --- | --- |
| COc1cc2c(Nc3ccc(Br)cc3F)ncnc2cc1OCC1CCN(C)CC1 [ZD6474, 4-(4-bromo-2-fluoroanilino)-6-methoxy-7-(1-methylpiperidin-4-ylmethoxy)quinazoline] | 0.148 cm^3 | 0.148 cm^3 | 0.967 cm^3 | 0.702 cm^3 | potent inhibitor | broad-spectrum anti-tumour activity |
| Nc1nc2[nH]cc(CCc3ccc(C(=O)N[C@@H](CCC(=O)[O-])C(=O)[O-])cc3)c2c(=O)[nH]1.[Na+].[Na+] [pemetrexed, L-Glutamic acid, N-[4-[2-(2-amino-4,7-dihydro-4-oxo-1H-pyffolo[2,3-d]pyrimidin-5-yl)ethyl]benzoyl]-, disodium salt, hetpahydrate] | 0.147 cm^3 | 0.146 cm^3 | 0.794 cm^3 | 0.751 cm^3 |  |  |
